Drawing on patent US8691865B2 (AbbVie Inc., priority 2008, dated 2014), this text covers IC50 for 29 molecules.

Some results are limits rather than exact numbers.

Sequence of human Cav2.2 (Q00975 whole entry): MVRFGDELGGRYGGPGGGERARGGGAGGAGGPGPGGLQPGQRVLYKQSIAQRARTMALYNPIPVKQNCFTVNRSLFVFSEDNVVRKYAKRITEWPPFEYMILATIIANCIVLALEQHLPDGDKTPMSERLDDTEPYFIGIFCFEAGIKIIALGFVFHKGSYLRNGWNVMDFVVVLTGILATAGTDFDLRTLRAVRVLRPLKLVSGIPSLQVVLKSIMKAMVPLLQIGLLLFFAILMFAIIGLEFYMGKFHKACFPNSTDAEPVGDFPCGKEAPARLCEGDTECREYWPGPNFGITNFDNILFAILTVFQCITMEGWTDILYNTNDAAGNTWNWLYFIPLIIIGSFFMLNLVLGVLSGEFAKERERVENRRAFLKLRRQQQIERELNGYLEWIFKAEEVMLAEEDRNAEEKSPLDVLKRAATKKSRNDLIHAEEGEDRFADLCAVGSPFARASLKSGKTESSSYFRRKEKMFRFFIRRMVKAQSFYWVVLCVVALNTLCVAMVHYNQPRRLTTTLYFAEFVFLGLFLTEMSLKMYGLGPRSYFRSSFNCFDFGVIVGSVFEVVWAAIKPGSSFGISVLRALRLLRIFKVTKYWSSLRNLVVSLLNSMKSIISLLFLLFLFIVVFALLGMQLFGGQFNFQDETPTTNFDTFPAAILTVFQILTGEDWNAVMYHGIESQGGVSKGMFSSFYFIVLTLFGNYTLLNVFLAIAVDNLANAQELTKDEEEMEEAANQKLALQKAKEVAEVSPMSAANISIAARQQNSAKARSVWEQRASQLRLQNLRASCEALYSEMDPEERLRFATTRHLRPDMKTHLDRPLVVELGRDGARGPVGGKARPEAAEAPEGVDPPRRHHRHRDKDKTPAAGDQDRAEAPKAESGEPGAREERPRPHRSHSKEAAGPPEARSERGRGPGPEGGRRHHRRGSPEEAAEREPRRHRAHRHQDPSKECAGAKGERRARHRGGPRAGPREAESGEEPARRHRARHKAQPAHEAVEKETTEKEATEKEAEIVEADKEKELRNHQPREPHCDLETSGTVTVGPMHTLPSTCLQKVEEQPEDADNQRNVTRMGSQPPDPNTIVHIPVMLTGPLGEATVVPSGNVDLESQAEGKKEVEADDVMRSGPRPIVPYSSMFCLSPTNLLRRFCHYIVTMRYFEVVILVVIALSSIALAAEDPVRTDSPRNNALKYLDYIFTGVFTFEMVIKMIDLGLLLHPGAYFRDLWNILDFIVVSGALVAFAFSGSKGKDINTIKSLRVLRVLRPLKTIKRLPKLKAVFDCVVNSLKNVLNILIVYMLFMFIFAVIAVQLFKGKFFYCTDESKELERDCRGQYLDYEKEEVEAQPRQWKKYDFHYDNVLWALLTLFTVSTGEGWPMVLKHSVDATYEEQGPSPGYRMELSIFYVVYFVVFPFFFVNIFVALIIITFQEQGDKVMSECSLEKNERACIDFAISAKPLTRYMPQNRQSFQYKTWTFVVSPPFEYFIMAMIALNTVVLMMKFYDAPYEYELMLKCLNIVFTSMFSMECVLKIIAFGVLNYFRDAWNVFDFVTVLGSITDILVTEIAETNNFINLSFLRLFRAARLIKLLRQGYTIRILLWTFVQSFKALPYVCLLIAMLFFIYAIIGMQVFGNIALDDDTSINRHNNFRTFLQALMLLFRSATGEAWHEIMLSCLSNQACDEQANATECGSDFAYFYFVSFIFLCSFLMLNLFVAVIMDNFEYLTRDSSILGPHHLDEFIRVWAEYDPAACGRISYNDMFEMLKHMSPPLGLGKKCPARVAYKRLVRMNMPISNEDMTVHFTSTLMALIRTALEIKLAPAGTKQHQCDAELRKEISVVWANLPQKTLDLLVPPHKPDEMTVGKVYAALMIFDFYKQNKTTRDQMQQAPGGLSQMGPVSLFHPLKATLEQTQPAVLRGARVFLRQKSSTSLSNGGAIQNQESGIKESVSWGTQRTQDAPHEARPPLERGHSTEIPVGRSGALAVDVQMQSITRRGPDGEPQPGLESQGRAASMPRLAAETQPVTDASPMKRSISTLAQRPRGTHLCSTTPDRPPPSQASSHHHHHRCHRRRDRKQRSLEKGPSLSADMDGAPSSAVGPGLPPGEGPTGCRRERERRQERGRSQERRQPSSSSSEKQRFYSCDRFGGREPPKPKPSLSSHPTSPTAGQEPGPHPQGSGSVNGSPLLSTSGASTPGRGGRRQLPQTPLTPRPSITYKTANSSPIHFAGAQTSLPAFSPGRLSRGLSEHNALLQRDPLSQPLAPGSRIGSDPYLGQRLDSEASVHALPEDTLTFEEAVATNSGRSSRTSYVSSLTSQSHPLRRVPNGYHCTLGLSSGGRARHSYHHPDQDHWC
Sequence of human Cav2.2 (P54289 25-956 partner limits assumed): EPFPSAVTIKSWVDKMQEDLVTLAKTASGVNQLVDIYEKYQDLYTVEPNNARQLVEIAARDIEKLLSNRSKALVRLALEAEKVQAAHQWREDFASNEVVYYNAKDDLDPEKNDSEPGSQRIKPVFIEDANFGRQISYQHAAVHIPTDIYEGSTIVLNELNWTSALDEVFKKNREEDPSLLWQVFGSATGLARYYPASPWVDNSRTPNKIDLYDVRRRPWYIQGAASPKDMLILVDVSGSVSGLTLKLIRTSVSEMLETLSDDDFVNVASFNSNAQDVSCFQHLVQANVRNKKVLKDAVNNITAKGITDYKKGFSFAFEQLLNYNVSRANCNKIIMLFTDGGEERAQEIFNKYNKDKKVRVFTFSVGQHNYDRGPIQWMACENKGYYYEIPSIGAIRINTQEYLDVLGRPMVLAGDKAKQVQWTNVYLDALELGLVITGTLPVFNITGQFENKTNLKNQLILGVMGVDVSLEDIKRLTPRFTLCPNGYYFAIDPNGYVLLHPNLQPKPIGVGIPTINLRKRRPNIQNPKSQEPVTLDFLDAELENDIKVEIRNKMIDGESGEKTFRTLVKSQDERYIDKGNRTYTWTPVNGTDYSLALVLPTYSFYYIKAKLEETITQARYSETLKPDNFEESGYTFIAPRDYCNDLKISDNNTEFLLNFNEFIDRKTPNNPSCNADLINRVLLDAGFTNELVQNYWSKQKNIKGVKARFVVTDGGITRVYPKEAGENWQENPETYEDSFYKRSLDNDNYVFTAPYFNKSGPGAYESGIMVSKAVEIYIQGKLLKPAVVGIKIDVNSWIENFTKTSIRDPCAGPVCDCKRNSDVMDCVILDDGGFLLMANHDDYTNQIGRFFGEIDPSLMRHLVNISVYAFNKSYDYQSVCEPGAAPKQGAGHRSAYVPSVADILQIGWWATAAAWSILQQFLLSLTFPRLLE
Sequence of human Cav2.2 (P54289 957-1103 partner limits assumed): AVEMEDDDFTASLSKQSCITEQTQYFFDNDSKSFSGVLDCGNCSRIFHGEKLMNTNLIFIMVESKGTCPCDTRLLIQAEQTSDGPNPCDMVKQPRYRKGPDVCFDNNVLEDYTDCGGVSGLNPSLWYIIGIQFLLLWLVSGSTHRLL
Sequence of human Cav2.2 (P54284 whole entry partner): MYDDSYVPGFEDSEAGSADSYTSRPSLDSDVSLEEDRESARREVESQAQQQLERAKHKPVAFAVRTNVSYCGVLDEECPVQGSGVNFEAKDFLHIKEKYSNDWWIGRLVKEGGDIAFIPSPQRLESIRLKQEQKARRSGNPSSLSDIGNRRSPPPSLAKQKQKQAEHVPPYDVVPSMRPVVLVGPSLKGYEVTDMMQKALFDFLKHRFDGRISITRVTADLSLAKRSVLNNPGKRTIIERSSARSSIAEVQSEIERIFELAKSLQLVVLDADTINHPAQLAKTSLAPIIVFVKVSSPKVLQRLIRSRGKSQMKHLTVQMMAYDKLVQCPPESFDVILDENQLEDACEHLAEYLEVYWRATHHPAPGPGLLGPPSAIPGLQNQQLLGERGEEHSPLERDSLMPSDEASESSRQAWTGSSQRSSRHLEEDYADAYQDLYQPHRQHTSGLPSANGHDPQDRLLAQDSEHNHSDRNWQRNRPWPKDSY

One experiment addresses human Cav2.2 (Homo sapiens, UniProt Q00975). The experiment can be described thus: Assessment of calcium channel activity using FLIPR (Ca2+ influx in IMR32 cells). The class given is cell-based.
Conditions: not given
In outline: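 IC50 values derive from nonlinear sigmoidal fitting of percent inhibition, relative to inhibitor-free activity, of Ca2+ influx read by FLIPR. Cells were IMR32 human neuroblastoma, plated at 1−1.2×10^5 per well and grown 48 h at 37 °C.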
As usually defined, the IC50 is the concentration that gives 50% inhibition. As to `CC(C)COC(=O)N[C@@H](CC(C)C)C(=O)N[C@@H]1CC[C@H]2CN(Cc3cccc(C(F)(F)F)c3)C[C@H]21` [Example 178, isobutyl (S)-4-methyl-1-oxo-1-((3aS,4R,6aR)-2-(3-(trifluoromethyl)benzyl)octahydrocyclopenta[c]pyrrol-4-ylamino)pentan-2-ylcarbamate], the IC50 amounted to 1 µM.

Consider `CN[C@@H](CC(C)C)C(=O)N[C@@H]1CC[C@H]2CN(S(=O)(=O)c3cccc(C(F)(F)F)c3)C[C@H]21` [Example 182, N^2-methyl-N^1-((3aS,4R,6aR)-2-{[3-(trifluoromethyl)phenyl]sulfonyl}octahydrocyclopenta[c]pyrrol-4-yl)-L-leucinamide], for which the IC50 turned out to be 1.45 µM.

For `O=S(=O)(N[C@@H]1CC[C@@H]2CN(Cc3cccc(C(F)(F)F)c3)C[C@@H]21)c1cccc(C(F)(F)F)c1` [Example 188, 3-(trifluoromethyl)-N-{(3aR,4R,6aS)-2-[3-(trifluoromethyl)benzyl]octahydrocyclopenta[c]pyrrol-4-yl}benzenesulfonamide], the IC50 turned out to be 0.85 µM.

In the case of `O=S(=O)(N[C@@H]1CC[C@H]2CN(CCC(c3ccc(F)cc3)c3ccc(F)cc3)C[C@H]21)c1cccc(C(F)(F)F)c1` [Example 193, N-{(3aS,4R,6aR)-2-[3,3-bis(4-fluorophenyl)propyl]octahydrocyclopenta[c]pyrrol-4-yl}-3-(trifluoromethyl)benzenesulfonamide], the IC50 stood at 0.57 µM.

With `CC(C)CC(=O)N[C@H]1CC[C@@H]2CN(Cc3ccccc3)C[C@@H]21` [Example 230, N-[(3aR,4S,6aS)-2-benzyloctahydrocyclopenta[c]pyrrol-4-yl]-3-methylbutanamide], the IC50 was greater than 30 µM.

For the molecule `CC(C)C(C(=O)N[C@@H]1CC[C@H]2CN(Cc3ccccc3)C[C@H]21)C(C)C` [Example 235, N-[(3aS,4R,6aR)-2-benzyloctahydrocyclopenta[c]pyrrol-4-yl]-2-isopropyl-3-methylbutanamide], the 50% inhibitory concentration (IC50) worked out at 11 µM.

Consider `CC(C)CC(=O)N[C@@H]1CC[C@H]2CN(Cc3ccccc3)C[C@H]21` [Example 236, N-[(3aS,4R,6aR)-2-benzyloctahydrocyclopenta[c]pyrrol-4-yl]-3-methylbutanamide], for which the IC50 was greater than 30 µM.

As for `O=C(N[C@H]1CC[C@H]2CN(Cc3cccc(C(F)(F)F)c3)C[C@H]21)C(O)C1CCCCC1` (stereo partly drawn) [Example 237, 2-cyclohexyl-2-hydroxy-N-{(3aS,4S,6aR)-2-[3-(trifluoromethyl)benzyl]octahydrocyclopenta[c]pyrrol-4-yl}acetamide], the IC50 stood at 1.46 µM.

Staying with this experiment, now noted: read-out: IC50 (μM) or percent inhibition (* indicates 3 minute incubation, otherwise 60 minute); IC50; 60 minute pre-incubation with compound; IMR32 cells, 80 mM KCl depolarization.
For the molecule `CC(C)C[C@H](NS(=O)(=O)CC(C)C)C(=O)N[C@@H]1CC[C@H]2CN(Cc3cccc(C(F)(F)F)c3)C[C@H]21` [Example 173, N^2-(isobutylsulfonyl)-N^1-{(3aS,4R,6aR)-2-[3-(trifluoromethyl)benzyl]octahydrocyclopenta[c]pyrrol-4-yl}-L-leucinamide], the IC50 turned out to be 1.81 µM.

In the case of `CC(C)C[C@H](NS(=O)(=O)C1CC1)C(=O)N[C@H]1CC[C@H]2CN(Cc3cccc(C(F)(F)F)c3)C[C@H]21` [Example 174, N^2-(cyclopropylsulfonyl)-N^1-{(3aS,4S,6aR)-2-[3-(trifluoromethyl)benzyl]octahydrocyclopenta[c]pyrrol-4-yl}-L-leucinamide], the IC50 came to 1.04 µM.

For the molecule `CC(C)C[C@@H](C(=O)N[C@@H]1CC[C@H]2CN(Cc3cccc(C(F)(F)F)c3)C[C@H]21)N(C)C(=O)C(C)(C)C` [Example 176, N^2-(2,2-dimethylpropanoyl)-N^2-methyl-N^1-{(3aS,4R,6aR)-2-[3-(trifluoromethyl)benzyl]octahydrocyclopenta[c]pyrrol-4-yl}-L-leucinamide], the 50% inhibitory concentration (IC50) amounted to 0.86 µM.

`CC(C)C[C@H](NC(=O)C(C)(C)C)C(=O)N[C@@H]1CC[C@H]2CN(Cc3cccc(C(F)(F)F)c3)C[C@H]21` [Example 177, N^2-(2,2-dimethylpropanoyl)-N^1-{(3aS,4R,6aR)-2-[3-(trifluoromethyl)benzyl]octahydrocyclopenta[c]pyrrol-4-yl}-L-leucinamide]: the IC50 came out at 2.64 µM.

As for `CC(C)C[C@H](NC(=O)OC1CCCC1)C(=O)N[C@@H]1CC[C@H]2CN(Cc3cccc(C(F)(F)F)c3)C[C@H]21` [Example 179, cyclopentyl(S)-4-methyl-1-oxo-1-((3aS,4R,6aR)-2-(3-(trifluoromethyl)benzyl)octahydrocyclopenta[c]pyrrol-4-ylamino)pentan-2-ylcarbamate], the IC50 was 0.89 µM.

Regarding `CC(C)C[C@H](NC(=O)NC(C)(C)C)C(=O)N[C@@H]1CC[C@H]2CN(Cc3cccc(C(F)(F)F)c3)C[C@H]21` [Example 180, N^2-[(tert-butylamino)carbonyl]-N^1-{(3aS,4R,6aR)-2-[3-(trifluoromethyl)benzyl]octahydrocyclopenta[c]pyrrol-4-yl}-L-leucinamide], the IC50 came out at 1.83 µM.

On to `CC(C)C[C@H](NC(=O)NC1CCCC1)C(=O)N[C@@H]1CC[C@H]2CN(Cc3cccc(C(F)(F)F)c3)C[C@H]21` [Example 181, N^2-[(cyclopentylamino)carbonyl]-N^1-{(3aS,4R,6aR)-2-[3-(trifluoromethyl)benzyl]octahydrocyclopenta[c]pyrrol-4-yl}-L-leucinamide], for which the IC50 came to 0.94 µM.

As for `CN[C@@H](CC(C)C)C(=O)N[C@@H]1CC[C@H]2CN(S(=O)(=O)c3ccc(C(F)(F)F)cc3)C[C@H]21` [Example 183, N^2-methyl-N^1-((3aS,4R,6aR)-2-{[4-(trifluoromethyl)phenyl]sulfonyl}octahydrocyclopenta[c]pyrrol-4-yl)-L-leucinamide], the IC50 amounted to 1.41 µM.

On to `CC(C)C[C@H](N)C(=O)N[C@@H]1CC[C@H]2CN(S(=O)(=O)c3cccc(C(F)(F)F)c3)C[C@H]21` [Example 184, N^1-((3aS,4R,6aR)-2-{[3-(trifluoromethyl)phenyl]sulfonyl}octahydrocyclopenta[c]pyrrol-4-yl)-L-leucinamide], for which the IC50 was found to be 1.45 µM.

With `O=S(=O)(N[C@H]1CC[C@H]2CN(Cc3cccc(C(F)(F)F)c3)C[C@H]21)c1cccc(C(F)(F)F)c1` [Example 187, 3-(trifluoromethyl)-N-{(3aS,4S,6aR)-2-[3-(trifluoromethyl)benzyl]octahydrocyclopenta[c]pyrrol-4-yl}benzenesulfonamide], the IC50 turned out to be 1.24 µM.

Consider `O=S(=O)(N[C@@H]1CC[C@H]2CN(Cc3cccc(C(F)(F)F)c3)C[C@H]21)c1cccc(C(F)(F)F)c1` [Example 189, 3-(trifluoromethyl)-N-{(3aS,4R,6aR)-2-[3-(trifluoromethyl)benzyl]octahydrocyclopenta[c]pyrrol-4-yl}benzenesulfonamide], for which the concentration for half-maximal inhibition (IC50) was determined as 1.01 µM.

In the case of `O=S(=O)(N[C@@H]1CC[C@H]2CN(CCCCCC(c3ccc(F)cc3)c3ccc(F)cc3)C[C@H]21)c1cccc(C(F)(F)F)c1` [Example 191, N-{(3aS,4R,6aR)-2-[6,6-bis(4-fluorophenyl)hexyl]octahydrocyclopenta[c]pyrrol-4-yl}-3-(trifluoromethyl)benzenesulfonamide], the IC50 is 0.51 µM.

In the case of `O=S(=O)(N[C@@H]1CC[C@H]2CN(Cc3cc(C(F)(F)F)cc(C(F)(F)F)c3)C[C@H]21)c1cccc(C(F)(F)F)c1` [Example 192, N-{(3aS,4R,6aR)-2-[3,5-bis(trifluoromethyl)benzyl]octahydrocyclopenta[c]pyrrol-4-yl}-3-(trifluoromethyl)benzenesulfonamide], the 50% inhibitory concentration (IC50) stood at 2.27 µM.

As for `O=S(=O)(N[C@H]1CC[C@H]2CN(CCCCO)C[C@H]21)c1cccc(C(F)(F)F)c1` [Example 195, N-[(3aS,4S,6aR)-2-(4-hydroxybutyl)octahydrocyclopenta[c]pyrrol-4-yl]-3-(trifluoromethyl)benzenesulfonamide], the IC50 worked out at 22.1 µM.

For `CC[C@H](C(=O)N[C@H]1CC[C@@H]2CN([C@@H](C)c3ccccc3)C[C@@H]21)c1ccccc1` [Example 211, (2S)-2-phenyl-N-{(3aR,4S,6aS)-2-[(1S)-1-phenylethyl]octahydrocyclopenta[c]pyrrol-4-yl}butanamide], the IC50 was 3.82 µM.

Take `CC[C@H](C(=O)N[C@H]1CC[C@H]2CN([C@@H](C)c3ccccc3)C[C@H]21)c1ccccc1` [Example 212, (2S)-2-phenyl-N-{(3aS,4S,6aR)-2-[(1S)-1-phenylethyl]octahydrocyclopenta[c]pyrrol-4-yl}butanamide]: the 50% inhibitory concentration (IC50) is 4.13 µM.

As for `CC(C)C[C@H](C(=O)N1C[C@@H]2CC[C@@H](NC(=O)C(C3CCCCC3)C3CCCCC3)[C@@H]2C1)N(C)C` [Example 217, 2,2-dicyclohexyl-N-[(3aS,4R,6aR)-2-(N,N-dimethyl-D-leucyl)octahydrocyclopenta[c]pyrrol-4-yl]acetamide], the IC50 amounted to 1.28 µM.

Take `CC(C)(C)OC(=O)N[C@H](C(=O)N[C@H]1CC[C@@H]2CN(Cc3ccccc3)C[C@@H]21)C(C)(C)C` [Example 225, tert-butyl(S)-1-((3aR,4S,6aS)-2-benzyloctahydrocyclopenta[c]pyrrol-4-ylamino)-3,3-dimethyl-1-oxobutan-2-ylcarbamate]: the IC50 came to 9.36 µM.

Turning to `CC(C)C(C(=O)N[C@H]1CC[C@@H]2CN(Cc3ccccc3)C[C@@H]21)C(C)C` [Example 229, N-[(3aR,4S,6aS)-2-benzyloctahydrocyclopenta[c]pyrrol-4-yl]-2-isopropyl-3-methylbutanamide], the IC50 was found to be 13.4 µM.

Regarding `CC(C)(C)OC(=O)N1CCCC[C@H]1C(=O)N[C@@H]1CC[C@H]2CN(Cc3ccccc3)C[C@H]21` [Example 231, tert-butyl(2S)-2-({[(3aS,4R,6aR)-2-benzyloctahydrocyclopenta[c]pyrrol-4-yl]amino}carbonyl)piperidine-1-carboxylate], the IC50 was found to be 6.13 µM.

Consider `CCC[C@@H](C(=O)N[C@@H]1CC[C@H]2CN(Cc3ccccc3)C[C@H]21)N(C)C(=O)OC(C)(C)C` [Example 233, tert-butyl(S)-1-((3aS,4R,6aR)-2-benzyloctahydrocyclopenta[c]pyrrol-4-ylamino)-1-oxopentan-2-yl(methyl)carbamate], for which the 50% inhibitory concentration (IC50) worked out at 2.8 µM.
